Measurements from the CheMixHub viscosity set.

Test: xn = mol fraction of the nth substance listed

COCCOCCOCCOC + ClCCl
298.15 K, 101 kPa
Details | viscosity [mPa·s]
x1 = 0.0122 | 0.436
x1 = 0.0214 | 0.451
x1 = 0.043 | 0.496
x1 = 0.0736 | 0.575
x1 = 0.1008 | 0.621
x1 = 0.159 | 0.752
x1 = 0.2062 | 0.868
x1 = 0.2482 | 0.96
x1 = 0.3121 | 1.078
x1 = 0.3987 | 1.247
x1 = 0.4705 | 1.371
x1 = 0.5389 | 1.476
x1 = 0.5879 | 1.549
x1 = 0.6389 | 1.645
x1 = 0.6782 | 1.669
x1 = 0.7651 | 1.787
x1 = 0.803 | 1.823
x1 = 0.8785 | 1.897
x1 = 0.9474 | 1.92

CCCC(=O)OC + Clc1ccccc1
viscosity [mPa·s], 101.3 kPa
Details | 308.15 K | 318.15 K
x1 = 0.0851 | 0.648 | 0.601
x1 = 0.1025 | 0.647 | 0.6
x1 = 0.2257 | 0.63 | 0.588
x1 = 0.3019 | 0.621 | 0.58
x1 = 0.4004 | 0.607 | 0.567
x1 = 0.5036 | 0.593 | 0.552
x1 = 0.5911 | 0.58 | 0.54
x1 = 0.6834 | 0.564 | 0.527
x1 = 0.8223 | 0.541 | 0.504
x1 = 0.8997 | 0.525 | 0.489
x1 = 0.9522 | 0.515 | 0.479

C1COCCOCCOCCOCCO1 + O
101 kPa
Details | viscosity [mPa·s]
293.15 K, x1 = 0.0006204 | 1.026
293.15 K, x1 = 0.001402 | 1.056
293.15 K, x1 = 0.00196 | 1.077
293.15 K, x1 = 0.002451 | 1.096
293.15 K, x1 = 0.002972 | 1.116
293.15 K, x1 = 0.003463 | 1.135
298.15 K, x1 = 0.0008458 | 0.9177
298.15 K, x1 = 0.001528 | 0.94
298.15 K, x1 = 0.002266 | 0.9641
298.15 K, x1 = 0.002834 | 0.9822
298.15 K, x1 = 0.003303 | 0.9976
298.15 K, x1 = 0.003773 | 1.013
303.15 K, x1 = 0.0006643 | 0.8159
303.15 K, x1 = 0.001358 | 0.835
303.15 K, x1 = 0.002066 | 0.8548
303.15 K, x1 = 0.003143 | 0.8854
303.15 K, x1 = 0.00351 | 0.8952
303.15 K, x1 = 0.003848 | 0.9049
308.15 K, x1 = 0.0008516 | 0.7393
308.15 K, x1 = 0.001375 | 0.7519
308.15 K, x1 = 0.001712 | 0.7607
308.15 K, x1 = 0.00238 | 0.7764
308.15 K, x1 = 0.003105 | 0.7938
308.15 K, x1 = 0.003675 | 0.8069

CCNCC + O
297.65 K, 101.33 kPa
Details | viscosity [mPa·s]
x1 = 0.0033 | 0.928
x1 = 0.0087 | 1.051
x1 = 0.0165 | 1.24
x1 = 0.023 | 1.405
x1 = 0.0271 | 1.508
x1 = 0.0342 | 1.691
x1 = 0.0458 | 1.985
x1 = 0.0592 | 2.305
x1 = 0.0733 | 2.604
x1 = 0.0885 | 2.863
x1 = 0.104 | 3.037
x1 = 0.1203 | 3.096
x1 = 0.1385 | 3.121

COCCOCCOCCOC + O
viscosity [mPa·s], 101.33 kPa
Details | 298 K | 298.15 K
x1 = 0.0057 | – | 1.058
x1 = 0.0077 | 1.15 | –
x1 = 0.0124 | – | 1.278
x1 = 0.0143 | 1.38 | –
x1 = 0.0176 | – | 1.444
x1 = 0.0247 | – | 1.737
x1 = 0.0255 | 1.83 | –
x1 = 0.0326 | – | 2.063
x1 = 0.0455 | – | 2.613
x1 = 0.0484 | 2.79 | –
x1 = 0.0673 | – | 3.462
x1 = 0.0796 | 3.89 | –
x1 = 0.0814 | 3.95 | –
x1 = 0.0826 | – | 4.032
x1 = 0.0934 | 4.25 | –
x1 = 0.1017 | – | 4.344
x1 = 0.1022 | 4.4 | –
x1 = 0.1092 | 4.49 | –
x1 = 0.1166 | 4.6 | –
x1 = 0.1215 | – | 4.581
x1 = 0.1407 | 4.68 | –
x1 = 0.1423 | – | 4.678
x1 = 0.1607 | – | 4.625
x1 = 0.1731 | 4.63 | –
x1 = 0.1907 | – | 4.512
x1 = 0.2117 | 4.39 | –
x1 = 0.2288 | – | 4.179
x1 = 0.2745 | 3.87 | 3.819
x1 = 0.3074 | – | 3.588
x1 = 0.3483 | 3.29 | –
x1 = 0.3653 | – | 3.236
x1 = 0.4097 | – | 3.035
x1 = 0.4311 | 2.9 | –
x1 = 0.4857 | – | 2.706
x1 = 0.5899 | 2.41 | –
x1 = 0.593 | – | 2.398
x1 = 0.6382 | – | 2.311
x1 = 0.702 | – | 2.269
x1 = 0.745 | 2.16 | –
x1 = 0.7475 | – | 2.22
x1 = 0.7813 | – | 2.166
x1 = 0.7839 | 2.1 | –
x1 = 0.8141 | – | 2.121
x1 = 0.8687 | 2.04 | –
x1 = 0.8937 | – | 2.068
x1 = 0.9665 | – | 2.035

O=S(=O)([O-])NC1CCCCC1.[K+] + O
viscosity [mPa·s], 101 kPa
Details | x1 = 0.0007156 | x1 = 0.001095 | x1 = 0.001452 | x1 = 0.001751 | x1 = 0.002086 | x1 = 0.002528 | x1 = 0.002966 | x1 = 0.003212 | x1 = 0.003506 | x1 = 0.003747
293.15 K | 1.021 | 1.031 | 1.041 | 1.049 | 1.058 | 1.072 | 1.085 | 1.091 | 1.101 | 1.107
298.15 K | 0.9071 | 0.9163 | 0.9245 | 0.9318 | 0.9397 | 0.9515 | 0.9626 | 0.9683 | 0.9765 | 0.982
303.15 K | 0.8126 | 0.8204 | 0.8278 | 0.8343 | 0.8412 | 0.8514 | 0.8611 | 0.866 | 0.873 | 0.8778
313.15 K | 0.6648 | 0.6714 | 0.6773 | 0.6823 | 0.6878 | 0.6957 | 0.7032 | 0.7073 | 0.7127 | 0.7164
323.15 K | 0.5565 | 0.5615 | 0.5663 | 0.5703 | 0.5748 | 0.5809 | 0.5873 | 0.5902 | 0.5948 | 0.5977

O=S(=O)([O-])NC1CCCCC1.[Li+] + O
viscosity [mPa·s], 101 kPa
Details | x1 = 0.002028 | x1 = 0.002453 | x1 = 0.00294 | x1 = 0.003377 | x1 = 0.003805 | x1 = 0.004126 | x1 = 0.00489
293.15 K | 1.078 | 1.095 | 1.115 | 1.133 | 1.151 | 1.164 | 1.197
298.15 K | 0.956 | 0.9707 | 0.9874 | 1.002 | 1.018 | 1.029 | 1.058
303.15 K | 0.8547 | 0.8675 | 0.8819 | 0.8949 | 0.9081 | 0.9174 | 0.9409
313.15 K | 0.6978 | 0.7075 | 0.7186 | 0.7288 | 0.739 | 0.7458 | 0.7652
323.15 K | 0.5823 | 0.5898 | 0.5985 | 0.6067 | 0.6147 | 0.6202 | 0.6355
